Assays:
[1] = Viscosity of the formulations; type: physicochemical; settings: Table 5 summary; 150 mM excipient, IgG1/lambda monoclonal antibody
Procedure: Unless otherwise specifically stated, viscosity of any composition discussed herein is determined at a temperature of 20° C. and a shear rate of 1029 s^−1 with a cone spindle of geometry 0.50°/40 mm.

New Zealand White rabbit = assay: Toxicity of Arginine-containing formulation buffer following intravitreal administration; type: in vivo
Procedure: A study was performed to determine the toxicity of an Arginine-containing formulation buffer following intravitreal administration to the New Zealand White rabbit for 4 weeks. Three buffers in 50 μl volumes and varying in concentrations of Arginine were injected intravitreally on a weekly basis for 3 weeks (i.e., three doses) and evaluated for toxicity. The three buffers were as follows: (1) 10 mM Histidine, 170 mM, Trehalose, 0.01% polysorbate 20, pH 5.5; (2) 50 mM Arginine, 10 mM, Histidine, 120 mM Trehalose, 0.01% polysorbate 20, pH 5.5; and (3) 150 mM Arginine, 10 mM Histidine, 0.01% polysorbate).

Structure (SMILES) | Reduction of the viscosity of the biologic relative to trehalose, urea and taurin [1] | Damage to photoreceptor cells of the eye (New Zealand White rabbit; higher concentrations, about 150 mM) | Damage to photoreceptor cells of the eye (New Zealand White rabbit; lower concentrations of arginine)
N=C(N)NCCC[C@H](N)C(=O)O [arginine] | far superior in reducing the viscosity | have shown damage to photoreceptor cells | do not cause damage to photoreceptor cells
N=C(N)N [guanidine] | far superior in reducing the viscosity | – | –

Source: patent US10010513B2, “Aqueous pharmaceutical composition containing a biologic therapeutic agent and guanidine or a guanidine derivative and an injection including the composition” (Novartis AG, priority 2012, dated 2018)
